Counter-ions that a name gives are not always drawn.
Legend:
blood coagulation [1] = assay: Thromboelastogram in dogs after administration of the compound; assay type: in vivo; settings: dog, 25 mg/kg; for Time of reaction of blood coagulation, R / Time of the clot formation K: arithmetic mean M; for Time of reaction of blood coagulation, R: 10 animals, initial 23.0; for Time of the clot formation K: initial 20.0
Procedure: (§1) The pharmacological studies of the hemostatic activity of the compounds according to the present invention was conducted in vivo and in vitro with the use of biochemical tests and by means of a thromboelasto- graph.
(§2) The blood for examination was taken from an opened dog's thigh vein prior to administration of the compound and 10, 30, 60, 90 and 120 min thereafter. For the cuvette of the thromboelasto- graph the blood was taken in the amount of 0.36 ml, while for biochemical tests -up to 10 ml (as the con- servant use was made of a 1.34% solution of sodium oxalate which was added in the ratio of 1:9).
The next series of experiments - administration of the compound according to the present invention in the dose of 25 mg/kg of the animals' bodymass.

blood coagulation [2] = assay: Thromboelastogram in vitro; assay type: biochemical; settings: for Time of the reaction of blood coagulation, R / Coagulation index, C: in vitro, experiment (O)
Procedure: as §1
The effect of the compound according to the present invention , viz. 3,1,18-trihydroxy-9,13-epofil- abdan-15-ic acid sodium salt trihydrate on hemostasis was studied in vitro with the use of a thromboelastogram.

blood coagulation system [3] = assay: Biochemical tests of the blood coagulation system in dogs, intravenous; assay type: in vivo; settings: dog, 25 mg/kg intravenously; for Time of blood coagulation / Tolerance of the plasma to heparin / Trombin time / Time of plasma recalcification: mean M; for Time of blood coagulation: 10 animals, initial 5.1; for Tolerance of the plasma to heparin: initial 6.8; for Trombin time: initial 17.0; for Time of plasma recalcification: initial 117.0
Procedure: as §1, §2
In another series of experiments the effect of the compound according to the present invention was studied in biochemical tests.

local blood hemorrhage = assay: Local blood hemorrhage, local application; assay type: in vivo; settings: local effect, concentration of 0.5%
Description: The study of the effect provided by the compound according to the present invention on the local blood hemorrhage has shown that the local effect of the compound in tne concentration of 0.5% lowers the flood loss by 83% and the hemorrhage duration is reduced by 60%.

thrombocytes = assay: Effect on thrombocytes
Description: Furthermore, the compound according to the present invention increases the number of thrombocytes and activates adhesion and aggregation of thrombocytes.

heparin = assay: Effect on heparin
white non-descipt mice = assay: Acute toxicity, intraperitoneal; assay type: in vivo
Procedure: The compound according to the present invention, i.e. 3,16,18-trihydroxy-3,13-epoxylabdan-15-ic acid sodium salt trihydrate was tested for an acute toxicity.

rats, dogs = settings: in vivo
blood coagulation [4] = assay: Thromboelastogram in dogs after administration of the compound; assay type: in vivo; settings: 10 mg/kg
blood coagulation [5] = assay: Blood coagulation in dogs after hypodermal administration of a 20% oily solution; assay type: in vivo; settings: 50 mg/kg hypodermally; for Time of blood coagulation / Fibrinolytic activity of blood / Time of plasma recalcification / Tolerance of plasma to heparin / Fibrinogen: mean M; for Time of blood coagulation: prior 318.0; for Fibrinolytic activity of blood: prior 41.0; for Time of plasma recalcification: prior 106.0; for Tolerance of plasma to heparin: prior 214.0; for Fibrinogen: prior 435.0
Procedure: as §1
[…] For the cuvette of the thromboelasto- graph the blood was taken in the amount of 0.36 ml, while for biochemical tests -up to 10 ml (as the con- servant use was made of a 1.34% solution of sodium oxalate which was added in the ratio of 1:9).
The compound according to the invention , viz. ? 3,18-dihydroxy-9,13-epoxylabdan-15-16-olide was administered to dogs (a group of 5 animals) in the dose of 50 mg/kg of the animal's bodymass hypodermally as a 20% oily solution.

mice = assay: LD50, subcutaneous 20% oily solution; assay type: in vivo; settings: subcutaneously (hypodermal)
Procedure: The LD50 was determined on mice (a group of 30 animals with. a bodymass of 20-21 g). The mice were administered with 3,18-dihydroxy-9,13-epoxylabdan-15,16-olide subcutaneously (a 20% oily solution). In the case of this manner of administration (i.e. hypodermal one) the LD50 was equal to more than 2,000 mg/kg of the animal's bodymass.

hemostatic effect [6] = settings: prior art statement; cited from earlier work
blood coagulation system [7] = assay: Comparative clinical study of hemostatic effect against dicynone; assay type: in vivo; settings: twenty post-operation patients, 20 minutes after introduction, p < 0.05
Procedure: The pharmaceutical preparation according to the present invention and dicynone were subjected to a comparative study for their hemostatic effect. Twenty post-operation patients (cardiorevivification department). The preparations were administered in the amount of […]. For the determination of the hemostatic effect determined by the functional state of the blood coagulation system the following characteristics were studied: thromboelastogram, the time of recalcification of citrate plasma and the plasma tolerance towards heparin. 20 minutes after the introduction of dicynone the parameter of the time of reaction of the rate of formation of thromboplastin was decreased by 32%, after administration of the preparation according to the present invention - by 75%, the time of coagulation was reduced, respectively, by 2'1 and 43%, t,ie time of recalcification of plasma decreased by 43 and 61% respectively, tolerance of plasma to heparin increased by 36 and 52%, respectively (at an error of p < 0.05).

hemostatic effect [8] = settings: after administration to patients; cited from earlier work
[9] = 30 minutes after administration
[10] = 60 minutes after administration
[11] = 90 minutes after administration
[12] = 120 minutes after administration

With “3,16,18-trihydroxy-9,13-epoxylabdan-15-ic acid sodium salt trihydrate” the “coagulation time K is reduced by” value (blood coagulation [1]) was 40-55%, the “factor C (coagulation index) increased by” value (blood coagulation [1]) was 71-133% and the “Time of reaction of blood coagulation, R” value (blood coagulation [1]; column 2 (30 min by the note to Table 3)) was 10.0 mm. The “Time of reaction of blood coagulation, R” value (blood coagulation [1]; column 3 (60 min by the note to Table 3)) was 12.0 mm, the “Time of reaction of blood coagulation, R” value (blood coagulation [1]; column 4 (90 min by the note to Table 3)) was 9.0 mm and the “Time of reaction of blood coagulation, R” value (blood coagulation [1]; column 5 (120 min by the note to Table 3)) was 11.0 mm. For the same compound, the “Time of the clot formation K” value (blood coagulation [1]; fifth value column (120 min by the note to Table 3)) was 9.0 mm, the “Time of the clot formation K” value (blood coagulation [1]; fourth value column (90 min by the note to Table 3)) was 10.0 mm and the “Time of the clot formation K” value (blood coagulation [1]; second value column (30 min by the note to Table 3)) was 12.0 mm. For the same compound, the “Time of the clot formation K” value (blood coagulation [1]; third value column (60 min by the note to Table 3)) was 11.0 mm, the “Time of the reaction of blood coagulation, R” value (from here on “Time of the reaction … R”) (blood coagulation [2]; 0.01 mg, control 26.0) was 7.0 mm and the “Time of the reaction … R” value (blood coagulation [2]; 0.1 mg, control 11.0) was 8.0 mm. The “Coagulation index, C” value (blood coagulation [2]; 0.1 mg, control 19.6) was 20.8 mm, the “Coagulation index, C” value (blood coagulation [2]; 1 mg, control 23.0) was 8.0 mm and the “Time of the reaction … R” value (blood coagulation [2]; 5 mg, control 18.0) was 32.0 mm. The “Coagulation index, C” value (blood coagulation [2]; 5 mg, control 19.0) was 3.4 mm, the “parameter R (the time of reaction of blood coagulation)” value (blood coagulation [2]; in vitro, 0.01, 0.1, 0.2 and 1.0 mg per 0.26 ml of blood) was “substantially reduces” and the “blood coagulation time is shortened by” value (blood coagulation system [3]) was 35-40%. For the same compound, the “thrombin time is reduced by” value (blood coagulation system [3]) was 30-35%, the “time of plasma recalcification shortened by” value (blood coagulation system [3]) was 33-39% and the “tolerance of plasma to heparin is increased by” value (blood coagulation system [3]) was 30-40%. The “Time of blood coagulation” value (blood coagulation system [3]; [9]) was 3.9 min, the “Time of blood coagulation” value (blood coagulation system [3]; [10]) was 3.7 min and the “Time of blood coagulation” value (blood coagulation system [3]; [11]) was 3.0 min. The “Time of blood coagulation” value (blood coagulation system [3]; [12]) was 3.4 min, the “Tolerance of the plasma to heparin” value (blood coagulation system [3]; [9]) was 4,8 min and the Trombin time (blood coagulation system [3]; [9]) was 12.0 s. The “Time of plasma recalcification” value (blood coagulation system [3]; [9]) was 78.0 s, the “Tolerance of the plasma to heparin” value (blood coagulation system [3]; [10]) was 4.6 min and the Trombin time (blood coagulation system [3]; [10]) was 12.0 s. The “Time of plasma recalcification” value (blood coagulation system [3]; [10]) was 79.0 s, the “Tolerance of the plasma to heparin” value (blood coagulation system [3]; [11]) was 4.3 min and the Trombin time (blood coagulation system [3]; [11]) was 11.0 s. For the same compound, the “Time of plasma recalcification” value (blood coagulation system [3]; [11]) was 74.0 s, the “Tolerance of the plasma to heparin” value (blood coagulation system [3]; [12]) was 4.1 min and the Trombin time (blood coagulation system [3]; [12]) was 11.0 s. The “Time of plasma recalcification” value (blood coagulation system [3]; [12]) was 71.0 s, the “hemorrhage duration is reduced by” value (local blood hemorrhage) was 60% and the “lowers the flood loss by” value (local blood hemorrhage) was 83%. The “adhesion and aggregation of thrombocytes” value (thrombocytes) was “activates”, the number of thrombocytes (thrombocytes) was “increases” and the effect on heparin (heparin) was “did not prevent the effect of heparin but weakened it”. For the same compound, the LD50 (white non-descipt mice; intraperitoneal administration) was “over 2,000 mg/kg of the animal's bodymass”, the “death of the animals” value (white non-descipt mice; intraperitoneal, 1,000 and 2,000 mg/kg) was “no death” and the local irritation effect (rats, dogs) was “neither provided any local irritation effect”. For the same compound, the “process of blood coagulation” value (blood coagulation [4]) was “promoted”.

In the case of “3,18-dihydroxy-9,13-epoxylabdan-15,16-olide”, the “blood coagulation time decreases by” value (blood coagulation [5]; 20% oily solution) is reported as 51%, the “time of recalcification decreases by” value (blood coagulation [5]; 20% oily solution) is reported as 32% and the “tolerance of the plasma to heparin was increased by” value (blood coagulation [5]; 20% oily solution) is reported as 37%. For the same compound, the “Time of blood coagulation” value (blood coagulation [5]; 20% oily solution, 60 min after administration) was 269.0 s, the “Time of blood coagulation” value (blood coagulation [5]; 20% oily solution, 120 min after administration) was 218.0 s and the “Time of blood coagulation” value (blood coagulation [5]; 20% oily solution, 180 min after administration) was 159.0 s. The “Fibrinolytic activity of blood” value (blood coagulation [5]; 60 min after administration) was 53.0%, the “Time of plasma recalcification” value (blood coagulation [5]; 60 min after administration) was 102.0 s and the “Tolerance of plasma to heparin” value (blood coagulation [5]; 60 min after administration) was 192.0 s. For the same compound, the Fibrinogen (blood coagulation [5]; 60 min after administration) was 387.0 mg%, the “Fibrinolytic activity of blood” value (blood coagulation [5]; 120 min after administration) was 54.0% and the “Time of plasma recalcification” value (blood coagulation [5]; 120 min after administration) was 84.0 s. The “Tolerance of plasma to heparin” value (blood coagulation [5]; 120 min after administration) was 138.0 s, the Fibrinogen (blood coagulation [5]; 120 min after administration) was 361.0 mg% and the “Fibrinolytic activity of blood” value (blood coagulation [5]; 180 min after administration) was 43.0%. For the same compound, the “Time of plasma recalcification” value (blood coagulation [5]; 180 min after administration) was 72.0 s, the “Tolerance of plasma to heparin” value (blood coagulation [5]; 180 min after administration) was 135.0 s and the Fibrinogen (blood coagulation [5]; 180 min after administration) was 293.0 mg%. The LD50 (mice) was “more than 2,000 mg/kg of the animal's bodymass”.

In the case of “3, 15, 16, 18-tetrahydroxy-9,13-epoxylabdane”, the hemostatic effect (hemostatic effect [6]) is given as “weak”.

With `O=S(=O)(O)c1cc(O)ccc1O` [dicynone, 2,5-dihydroxybenzenesulphonate-j-diethylammonium salt] the “time of recalcification of plasma decreased by” value (blood coagulation system [7]) was 43%, the “tolerance of plasma to heparin increased by” value (blood coagulation system [7]) was 36% and the “time of reaction of the rate of formation of thromboplastin decreased by” value (blood coagulation system [7]; amount of 75 g as printed) was 32%.

For `CC1(S(=O)(=O)[O-])CC(=O)c2ccccc2C1=O.[Na+]` (stereo not shown) [sodium 2,3-dihydro-2-methyl-1,4-naphthoquinone-2-sulphonate], the “hemostatic effect is noted within” value (hemostatic effect [8]) is listed as 12 to 18 h.
